Reference: patent US10858364B2, “Imidazopyrazine inhibitors of Bruton's tyrosine kinase” (Acerta Pharma B.V., priority 2016, dated 2020)

How the values were obtained:
anti-IgM-induced CD69 = test: Human PBMC anti-IgM-induced CD69 assay; type: cell-based; settings: CD19+ B cells, 2 h compound, 18 h anti-IgM, read-out: hPBMC: anti-IgM-induced CD69 EC50
Procedure: Whole blood was collected in heparin-coated Vacutainer tubes (BD Biosciences, San Jose, Calif.) and used for isolation of PBMCs using Ficoll-Hypaque (Pharmacia, Uppsala, Sweden). Isolated PBMCs were cryopreserved in 90% FCS/10% DMSO until later use.
Cells from cryogenic storage were thawed in a 37° C. water bath, diluted with RPMI/1% FCS, washed 2 times, and then plated at 2×10^5 cells per well in RPMI/10% FCS in 96 well plates.
Serial dilutions […] from 10 mM to 316 nM of test compounds are made in 100% DMSO, followed by a 100-fold dilution into RPMI/1% FCS. For each well, 10 μL was then transferred to the deep well plate containing 90 μL of PBMC cells. […]
Following stimulation with anti-IgM, PBMCs were incubated on ice for 30 min with anti-CD69-FITC, anti-CD19-BV421 (BD Biosciences #555530 and #562440, respectively) and 7AAD (Life Technologies # A1310). Flow cytometry was performed and fluorescence values were obtained from the CD69-FITC channel in CD19+ gated life B cells. EC50 values are determined by curve fitting of the experimental results using GraphPad Prism.
PBMC assay: Cryopreserved PBMC were thawed, washed, and suspended at 2×10^5 cells/well in RPMI+10% FBS in 96-well plates. […] EC50 values were determined by curve fitting of the experimental results using Dotmatics. […]

ITK = ITK (Homo sapiens (Human), UniProt Q08881); test: ITK enzyme activity, IMAP assay; type: biochemical; settings: 60 min pre-incubation, 5 μM ATP
Procedure: ITK enzyme activity is measured using the IMAP (immobilized metal ion affinity-based fluorescence polarization) assay as outlined below.
ITK enzyme (Millipore #14-660M) is diluted to 0.2 U/mL in KR buffer (10 mM Tris-HCl, 10 mM MgCl2, 0.01% Tween-20, 0.1% NaN3, 1 mM DTT, 2 mM MnCl2, pH 7.5)
Serial dilutions log 10 from 2 mM to 63.2 nM of test compounds are made in 100% DMSO. The dilutions in DMSO are then diluted 50-fold in KR-buffer. Final compound concentration range in the assay ranged from 10 μM to 0.316 nM.
The assay is performed as follows: 5 μL/well of test compound in KR buffer (final DMSO concentration in the assay is 1%) is mixed with 5 μL/well of 0.2 U/mL ITK enzyme (final concentration in the assay is 0.05 U/mL (8.4 nM)). Test compounds and ITK enzyme are pre-incubated 60 minutes at room temperature, before adding 5 μL/well of 200 nM Fluorescin labeled substrate peptide (Blk/Lyntide substrate # R8124, Molecular Devices) in KR-buffer. Final peptide substrate concentration in assay is 50 nM. The kinase assay is started by adding 5 μL/well of 20 μM ATP in KR-buffer (final ATP concentration is 5 μM ATP, Km ATP in ITK IMAP assay). […] IC50 values are determined by curve fitting of the experimental results in Dotmatics.

TXK = TXK (Homo sapiens (Human), UniProt P42681); test: TXK Z'-LYTE kinase assay; type: biochemical; settings: 1 h pre-incubation, Km ATP
Procedure: BMX, TXK, EGFR, ERBB2, ERBB4, JAK3, BLK kinase activity was measured using the Z′-LYTE assay at Thermo Fisher. A 10-point dose response (final concentration in assay ranged from 10 μM to 0.5 nM in 3-fold dilution per dilution step) was generated with 1 h incubation of the test compound with the kinase prior to initiation of the kinase reaction by the addition of ATP. ATP concentration in the assay was Km ATP for the different kinases. IC50 values are determined by curve fitting of the experimental results at Thermo Fisher.

anti-IgD-induced CD69 = test: Human whole blood anti-IgD-induced CD69 assay; type: cell-based; settings: B-cell, CD19+ B cells, 18h anti-IgD, read-out: hWB: anti-IgD-induced CD69 EC50
Procedure: WB assay: Forty-five μL blood was diluted 1:1 in RPMI+1% FBS and incubated with test compound, as described above. Blood cells were stimulated with 10 μg/mL mouse anti-human anti-IgD antibody (BD Biosciences, final concentration in assay 10 μg/mL) and incubated for 18h. Cells were stained with CD69-FITC, CD86-PE, and CD19-BV421 (BD Biosciences) for 15 minutes at room temperature, followed by RBCs lysis with FACS Lysing Solution (BD Biosciences). Cells were washed 3 times with 1 mL/well PBS+0.5% BSA, followed by flow cytometric analyses. Median fluorescence intensity values for CD69 were obtained from the CD19+B lymphocyte gate using FCSExpress analyses software (De Novo Software). EC50 values were determined by curve fitting of the experimental results using Dotmatics.
The potency of BTK inhibitors in primary B cells can be assessed in assays that evaluate functional changes after BCR-activation in the presence of inhibitor. Inhibition of specific phosphorylated epitopes on signaling proteins and more distal measures of BCR activation such as increased expression of CD86 (B7-2) and CD69 on the cell surface can be measured by flow cytometry (see Report R2013003A). In this study, effects of M27 on CD69 expression were assessed.

Chain of ITK (Q08881 whole entry): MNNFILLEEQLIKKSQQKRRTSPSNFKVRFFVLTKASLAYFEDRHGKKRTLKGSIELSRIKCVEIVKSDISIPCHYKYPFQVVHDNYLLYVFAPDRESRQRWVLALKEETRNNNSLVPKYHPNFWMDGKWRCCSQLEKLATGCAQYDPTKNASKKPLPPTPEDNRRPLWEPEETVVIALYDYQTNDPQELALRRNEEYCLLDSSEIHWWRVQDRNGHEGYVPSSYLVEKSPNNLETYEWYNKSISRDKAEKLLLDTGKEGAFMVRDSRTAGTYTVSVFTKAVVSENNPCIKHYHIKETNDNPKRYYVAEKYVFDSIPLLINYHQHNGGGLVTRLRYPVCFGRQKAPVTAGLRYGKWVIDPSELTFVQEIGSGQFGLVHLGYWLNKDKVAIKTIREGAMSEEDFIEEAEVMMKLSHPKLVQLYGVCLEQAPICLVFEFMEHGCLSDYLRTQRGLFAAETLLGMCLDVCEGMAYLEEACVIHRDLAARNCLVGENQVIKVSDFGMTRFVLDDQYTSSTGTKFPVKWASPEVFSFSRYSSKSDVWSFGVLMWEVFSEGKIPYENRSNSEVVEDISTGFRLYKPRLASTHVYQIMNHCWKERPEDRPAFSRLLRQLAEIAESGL
Chain of TXK (P42681 whole entry): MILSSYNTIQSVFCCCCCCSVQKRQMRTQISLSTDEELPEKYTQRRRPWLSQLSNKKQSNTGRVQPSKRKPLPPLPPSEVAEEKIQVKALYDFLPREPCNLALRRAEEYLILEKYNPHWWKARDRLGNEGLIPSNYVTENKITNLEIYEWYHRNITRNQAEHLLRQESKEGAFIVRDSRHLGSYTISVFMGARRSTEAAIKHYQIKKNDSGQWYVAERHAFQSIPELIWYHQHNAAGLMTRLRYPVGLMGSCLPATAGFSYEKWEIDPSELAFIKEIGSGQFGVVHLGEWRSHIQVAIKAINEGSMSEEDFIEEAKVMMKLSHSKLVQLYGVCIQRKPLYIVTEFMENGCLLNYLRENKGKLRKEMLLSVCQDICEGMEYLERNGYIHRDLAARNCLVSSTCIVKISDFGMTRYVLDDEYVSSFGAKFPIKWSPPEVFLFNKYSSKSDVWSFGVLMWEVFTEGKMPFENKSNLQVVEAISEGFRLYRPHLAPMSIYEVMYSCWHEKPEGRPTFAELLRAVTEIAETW

| Structure (SMILES) | EC50 (anti-IgM-induced CD69) | IC50 (ITK) | IC50 (TXK) | EC50 (anti-IgD-induced CD69) |
| --- | --- | --- | --- | --- |
| CC#CC(=O)NCCCC(=O)c1nc(-c2ccc(C(=O)Nc3ccccn3)cc2)c2c(N)nccn12 [Formula (I), 4-(8-amino-3-(4-(but-2-ynamido)butanoyl)imidazo[1,5-a]pyrazin-1-yl)-N-(pyridin-2-yl)benzamide] | 26 ± 16 nM | > 10000 nM | 567 ± 174 nM | 64 ± 6 nM |
| CC#CC(=O)NCCCC(=O)c1nc(-c2ccc(C(=O)Nc3ccccn3)c(OC)c2)c2c(N)nccn12 [Formula (II), 4-(8-amino-3-(4-(but-2-ynamido)butanoyl)imidazo[1,5-a]pyrazin-1-yl)-2-methoxy-N-(pyridin-2-yl)benzamide] | 19 ± 6 nM | > 10000 nM | 59 nM | 137 ± 36 nM |
